Data published in PMC10017685 (Nature Communications, 2023).
In brackets after ≈: the same amount, converted by molar mass. Where two headings read alike, the source gives them in different places. Peptide text beside a SMILES is read from it.

Tests used:
[1] = system: erythrocytes; settings: cited from earlier work
Text: Supplement 41467_2023_36994_MOESM6_ESM.xlsx, sheet "MD calibration" | column: Hemolytic activity (HC50); Comment

[2] = system: S. aureus ATCC 29212; settings: ref https://dbaasp.org/peptide-card?id=8199; cited from earlier work
Text: page 7: Reviewer #2 (Remarks to the Author): The authors present a new method, HydrAMP, for antimicrobial peptide generation. The generative model of HydrAMP is a decoder, which produces a distribution over peptides in order to mimic the synthesis of the antimicrobial peptides in biological experiments. HydrAMP is the first model trained and used to identify active analogs of non-AMP prototypes. During training, they introduce an additional encoder to provide a variational approximation to help optimize the decoder. Their method is based on the conditional VAE model, which provides the foundat ...

[3] = system: E. coli ATCC 25922; settings: ref https://dbaasp.org/peptide-card?id=8199; cited from earlier work
[4] = system: E. coli ATCC 25922; set-up: method as in DBAASP; settings: origin dbaasp_ecoli; ref DBAASP; cited from earlier work
[5] = system: E. coli ATCC 25922; format: cell-based, Escherichia coli
Experimental: Fresh cultures were used in antimicrobial assay. […] Moreover MBC was evaluated. […] All experiments were conducted in triplicate.

[6] = system: E. coli ATCC 43827; format: cell-based, Escherichia coli
Experimental: Verification of antimicrobial activity of the synthesized analogs was conducted on reference strains of E. coli ATCC 25922 and ATCC 43827 in the first phase of the experimental validation, and S. aureus ATCC 33591, E. coli ATCC 25922, E. coli ATCC 43827, A. baumannii ATCC BAA 1605, P. aeruginosa ATCC 9027 in the second phase.
All the strains were stored at -80 °C in Roti®-Store cryo vials (Carl Roth GmbH, Germany) and before the tests were transferred into fresh Mueller-Hinton Medium (BioMaxima, Poland) and incubated for 24 h at 37 °C. Fresh cultures were used in antimicrobial assay. The MIC values were evaluated by the broth microdilution method according to Clinical and Laboratory Standards Institute Protocol[86]. […] The experiments were conducted on 96-well microtiter plates, with a final volume of 100 μL. Inoculums densities were adjusted spectrophotometrically (Multiskan™ GO Microplate Spectrophotometer, Thermo Scientific) at the wavelength of 600 nm. The MICs were taken as the lowest drug concentration at which a visible growth of microorganisms was inhibited[87]. Moreover MBC was evaluated. After MIC examination the samples from MIC well and two higher concentrations were seeded on the agar plates. Section with no visible growth of bacterial colonies was reported as the MBC for each strain and compound. All experiments were conducted in triplicate. […]

[7] = system: Sheep red blood cells; assay: Hemolysis assay (HC50); format: cell-based
Experimental: The hemolysis assay was conducted according to the procedure described previously. Sheep red blood cells (Defibrillated Sheep Blood, Graso, Poland) were used. […] Then the solution of RBCs was added to each well (100 μL with a 4% concentration of erythrocytes (v/v). The control wells for 0 and 100% hemolysis were also prepared: RBCs suspended in PBS and 1% of Triton-X 100, respectively. After that the plates were incubated for 60 min at 37 °C and then centrifuged at 800 × g for 10 min at 4 °C (Sorvall ST 16R Centrifuge, Thermo Scientific). The supernatant was carefully […] to new microtiter plates and the release of hemoglobin was measured at 590 nm (Multiskan™ GO Microplate Spectrophotometer, Thermo Scientific). Hemolysis for each concentration was calculated as the percentage of control with 100% hemolysis. All experiments were conducted in triplicate. The final values of HC50 were computed using ic50.tk tool.

[8] = experimentally confirmed activity, strain not given; ref Supplementary Data 3; cited from earlier work
Text: 21 (1 picture or pasted object on this page, not shown here)

[9] = Supplementary Data 5F, analogue generation without additional preselection
[10] = first experimental round, broth microdilution (CLSI), Mueller-Hinton Broth, 0.5 × 10^5 CFU/mL, 1-[…], 18 h at 37 °C, triplicate

FFHHIFRGIVHVGKTIHRLVTG [Piscidin 1]
Comment: toxicity [1]: Active broad spetrum, toxic

FFSLIPSLVGGLISAFK [Stigmurin]
MIC S. aureus ATCC 29212 [2]: 8.68 µM
MIC E. coli ATCC 25922 [3]: > 139 µM

LKKLLKLLKPLLKL
Class (activity against E. coli ATCC 25922 in dedicated activity dataset) [4]: 1 (positive (active) examples are peptides selected from DBAASP with experimentally verified MIC≤ 101.5≃ 32 against E. coli ATCC 25922)

CC[C@H](C)[C@H](NC(=O)CNC(=O)[C@H](CO)NC(=O)[C@H](CC(C)C)NC(=O)[C@@H](NC(=O)[C@H](CCCNC(=N)N)NC(=O)CNC(=O)[C@@H](NC(=O)[C@H](CC(C)C)NC(=O)[C@@H]1CCCN1C(=O)[C@H](CC(C)C)NC(=O)[C@@H](N)Cc1ccccc1)[C@@H](C)CC)C(C)C)C(=O)N[C@@H](C)C(N)=O [Temp-P1-3] (H-FLPLIGRVLSGIA-NH2)
E. coli ATCC 25922 MIC [5, 9]: 512 µg/mL
MIC E. coli ATCC 25922 [5, 10]: 512 µg/mL (≈ 378 µM)
E. coli ATCC 43827 MIC [6, 9]: 512 µg/mL
MIC E. coli ATCC 43927 [6, 10]: 512 µg/mL (≈ 378 µM)

CC[C@H](C)[C@H](N)C(=O)N[C@@H](CC(C)C)C(=O)N[C@@H](CCCNC(=N)N)C(=O)N[C@@H](Cc1c[nH]c2ccccc12)C(=O)N1CCC[C@H]1C(=O)N[C@@H](Cc1c[nH]c2ccccc12)C(=O)N[C@@H](Cc1c[nH]c2ccccc12)C(=O)N1CCC[C@H]1C(=O)N[C@@H](Cc1c[nH]c2ccccc12)C(=O)N[C@@H](CCCNC(=N)N)C(=O)N[C@@H](CCCNC(=N)N)C(=O)N[C@@H](CCCCN)C(N)=O [Omiganan] (H-ILRWPWWPWRRK-NH2)
HC50 [7]: > 512 µg/mL
HC50 ([7]; red cells of sheep): >512 µg/mL

CC[C@H](C)[C@H](N)C(=O)NCC(=O)N[C@@H](CCCCN)C(=O)N[C@@H](CCC(=O)O)C(=O)N[C@@H](Cc1ccccc1)C(=O)N[C@@H](CCCCN)C(=O)N[C@@H](CCCNC(=N)N)C(=O)N[C@H](C(=O)N[C@H](C(=O)N[C@@H](CCC(=O)O)C(=O)N[C@@H](CCCNC(=N)N)C(=O)N[C@H](C(=O)N[C@@H](CCCCN)C(=O)N[C@@H](CCCNC(=N)N)C(=O)N[C@@H](Cc1ccccc1)C(=O)N[C@@H](CC(C)C)C(=O)N[C@@H](CCCNC(=N)N)C(=O)N[C@@H](CCC(=O)O)C(=O)N[C@@H](CC(C)C)C(=O)N[C@H](C(=O)N[C@@H](CCCNC(=N)N)C(=O)N1CCC[C@H]1C(=O)N[C@@H](CC(C)C)C(=O)N[C@@H](CCCNC(=N)N)C(N)=O)C(C)C)[C@@H](C)CC)C(C)C)[C@@H](C)CC [OP-145] (H-IGKEFKRIVERIKRFLRELVRPLR-NH2)
HC50 [7]: > 512 µg/mL
HC50 ([7]; red cells of sheep): >512 µg/mL

CC[C@H](C)[C@H](NC(=O)[C@H](Cc1ccccc1)NC(=O)[C@H](CCCCN)NC(=O)[C@H](CC(N)=O)NC(=O)[C@H](CC(C)C)NC(=O)[C@H](CCC(N)=O)NC(=O)CN)C(=O)N[C@@H](CCCCN)C(=O)N[C@@H](CCCCN)C(=O)N[C@@H](C)C(=O)N[C@@H](CCC(N)=O)C(=O)N[C@@H](CCCNC(=N)N)C(=O)N[C@@H](CCCCN)C(=O)N[C@@H](Cc1ccccc1)C(=O)N[C@@H](Cc1c[nH]cn1)C(=O)N[C@@H](CCC(=O)O)C(=O)N[C@@H](CCCCN)C(=O)N[C@@H](Cc1ccccc1)C(=O)N[C@@H](C)C(=O)N[C@@H](CCCCN)C(N)=O [GQ20] (H-GQLNKFIKKAQRKFHEKFAK-NH2)
HC50 [7]: > 512 µg/mL
HC50 ([7]; red cells of sheep): >512 µg/mL

KWCFRVCARGICYRRCR
Class (activity against E. coli ATCC 25922 in dedicated activity dataset) [4]: 1 (positive (active) examples are peptides selected from DBAASP with experimentally verified MIC≤ 101.5≃ 32 against E. coli ATCC 25922)

GLLSLSLGKLL
Class (activity against E. coli ATCC 25922 in dedicated activity dataset) [4]: 1 (positive (active) examples are peptides selected from DBAASP with experimentally verified MIC≤ 101.5≃ 32 against E. coli ATCC 25922)

FLRFIGSVIHGIGHLVHHIGVAL [Clavaspirin]
MIC (moderately active AMP of MD validation set) [8]: 64 µg/mL

KDRPKKPGLCPLIWWLIIKVG
Class (activity against E. coli ATCC 25922 in dedicated activity dataset) [4]: 1 (positive (active) examples are peptides selected from DBAASP with experimentally verified MIC≤ 101.5≃ 32 against E. coli ATCC 25922)
